Structures can show the parent of a compound that is named as a salt.

This passage reports IC50 results from patent US11840527B2, “Non-fused thiophene derivatives and their uses” (ENYO PHARMA, priority 2018, dated 2023).

In the assay the test system is H1N1 (influenza A/New Caledonia/20/99). Description: Antiviral effect on A549 cells infected with H1N1. Format: cell-based, H1N1 A/New Caledonia/20/99 virus. The settings on record: Influenza A virus, MOI 0.1, 48 h post-infection, MUNANA neuraminidase readout. As for the experimental part: The antiviral effect of the compounds of the invention have been tested on A549 cell lines infected with H1N1 (influenza A/New Caledonia/20/99).
Human A549 cells (80,000 cells/well in a 96 well plate) were treated with a range of concentration of test compounds and immediately infected by H1N1 A/New Caledonia/20/99 virus (clinical isolate) at MOI of 0.1 in DMEM/1% Penicillin/streptomycin supplemented with […] TPCK trypsin (Sigma) and incubated at 37° C. in 5% CO2. 48 h post-infection, supernatants (25 μl) were collected and transferred into a 96-well black flat-bottom plate, mixed with 25 μl PBS with Ca++/Mg++ (Thermo Fisher) and 50 μl of 2′-(4-Methylumbelliferyl)-ax-D-N-acetylneuraminic acid sodium salt hydrate stock-solution (20 μM, MUNANA, Sigma). Plates were incubated 1h at 37° C. and reaction is stopped by adding 100 μl of Stop Solution (glycine 0.1 M pH10.7/25% ethanol). The amount of fluorescent product released by MUNANA hydrolysis (4-MU) was measured in a Tecan spectrophotometer with excitation and emission wavelengths of 365 and 450 nm respectively.

The term IC50 denotes the concentration at which inhibition is half-maximal. A low value points to greater potency. `CC(C)(C)c1csc(NC(=O)c2ccccc2)c1C(=O)O` [Compound #32, 2-Benzamido-4-tert-butyl-thiophene-3-carboxylic acid] gave an IC50 of 1.47 µM.

Take `Cc1ccccc1C(=O)Nc1sc(Cl)c(C2CCCCC2)c1C(=O)O` [Compound #14, 5-Chloro-4-cyclohexyl-2-[(2-methylbenzoyl)amino]thiophene-3-carboxylic acid]: 0.5 µM corresponded to half-maximal inhibition (IC50).

Consider `O=C(Nc1scc(-c2ccccc2)c1C(=O)O)c1ccc(OC(F)F)cc1` [Compound #28, 2-[[4-(Difluoromethoxy)benzoyl]amino]-4-phenyl-thiophene-3-carboxylic acid], for which half-maximal inhibition (IC50) was put at 1.27 µM.

`COC1CN(c2ccc(C(=O)Nc3scc(C4CCC4)c3C(=O)O)cc2)C1` [Compound #97, 4-Cyclobutyl-2-[[4-(3-methoxyazetidin-1-yl)benzoyl]amino]thiophene-3-carboxylic acid] registered an IC50 of 0.11 µM.

Compound `Cc1sc(NC(=O)c2ccccc2)c(C(=O)O)c1-c1ccccc1` [Compound #34, 2-Benzamido-5-methyl-4-phenyl-thiophene-3-carboxylic acid] came in with an IC50 of 1.48 µM. Against the preceding compound, the IC50 is about 13-fold higher.

The compound `COCCNc1ccc(C(=O)Nc2scc(C3(C)CC3)c2C(=O)O)cc1` [Compound #108, 2-[[4-(2-Methoxyethylamino)benzoyl]amino]-4-(1-methylcyclopropyl)thiophene-3-carboxylic acid] returned an IC50 of 0.56 µM. Compared with the last compound, the IC50 is about 2.6-fold lower.

`CC(C)Cc1csc(NC(=O)c2ccccc2)c1C(=O)O` [Compound #96, 2-Benzamido-4-isobutyl-thiophene-3-carboxylic acid]: 0.61 µM corresponded to half-maximal inhibition (IC50).

Take `O=C(Nc1scc(C2CCCCC2)c1C(=O)O)c1ccc(OC(F)F)cc1` [Compound #11, 4-Cyclohexyl-2-[[4-(difluoromethoxy)benzoyl]amino]thiophene-3-carboxylic acid]: the IC50 was 0.412 µM.

`O=C(Nc1sc(Cl)c(-c2ccccc2)c1C(=O)O)c1ccccc1` [Compound #33, 2-Benzamido-5-chloro-4-phenyl-thiophene-3-carboxylic acid]: the IC50 turned out to be 1.47 µM.

Take `O=C(Nc1scc(C2C3CCCCC32)c1C(=O)O)c1ccccc1` (centres unmarked) [Compound #37, 2-Benzamido-4-norcaran-7-yl-thiophene-3-carboxylic acid]: inhibition was half-maximal at 1.87 µM (IC50).

In turn, `O=C(Nc1scc(C2CCCC2)c1C(=O)O)c1ccc(NC2CCOCC2)cc1` [Compound #60, 4-Cyclopentyl-2-[[4-(tetrahydropyran-4-ylamino)benzoyl]amino]thiophene-3-carboxylic acid] gave an IC50 of 0.047 µM.

In turn, `Cc1ccc(-c2c(Cl)sc(NC(=O)c3ccccc3)c2C(=O)O)cc1` [Compound #24, 2-Benzamido-5-chloro-4-(p-tolyl)thiophene-3-carboxylic acid] had an IC50 of 0.35 µM.

The compound `O=C(Nc1scc(C2CCC2)c1C(=O)O)c1ccc(NCC2CCOCC2)cc1` [Compound #99, 4-Cyclobutyl-2-[[4-(tetrahydropyran-4-ylmethylamino)benzoyl]amino]thiophene-3-carboxylic acid] registered an IC50 of 0.014 µM.

As for `CC(C)(C)c1csc(NC(=O)c2ccc(NC3CCCOC3)cc2)c1C(=O)O` (centres unmarked) [Compound #118, 4-tert-Butyl-2-[[4-(tetrahydropyran-3-ylamino)benzoyl]amino]thiophene-3-carboxylic acid], the IC50 worked out at 0.2 µM.

On to `Cc1ccc(-c2c(Cl)sc(NC(=O)c3ccccc3)c2C(=O)O)cc1C` [Compound #23, 2-Benzamido-5-chloro-4-(3,4-dimethylphenyl)thiophene-3-carboxylic acid], for which the IC50 was determined as 0.42 µM.

As to `COc1ccc(C(=O)Nc2scc(C3CCCCC3)c2C(=O)O)cc1OC` [Compound #25, 4-Cyclohexyl-2-[(3,4-dimethoxybenzoyl)amino]thiophene-3-carboxylic acid], the IC50 was 0.729 µM.

Turning to `COC1CN(c2ccc(C(=O)Nc3scc(C4(C)CCC4)c3C(=O)O)cc2)C1` [Compound #115, 2-[[4-(3-Methoxyazetidin-1-yl)benzoyl]amino]-4-(1-methylcyclobutyl) thiophene-3-carboxylic acid], half-maximal inhibition (IC50) required 0.24 µM.

In the case of `COc1ccc(-c2csc(NC(=O)c3ccccc3)c2C(=O)O)cc1` [Compound #38, 2-Benzamido-4-(4-methoxyphenyl)thiophene-3-carboxylic acid], the IC50 turned out to be 1.87 µM.

Compound `COc1ccc(C(=O)Nc2scc(-c3ccccc3)c2C(=O)O)cc1OC` [Compound #46, 2-[(3,4-Dimethoxybenzoyl)amino]-4-phenyl-thiophene-3-carboxylic acid] yielded an IC50 of 9.65 µM.

As for `Cc1sc(NC(=O)c2ccccc2)c(C(=O)O)c1-c1ccc(Cl)cc1` [Compound #4, 2-Benzamido-4-(4-chlorophenyl)-5-methyl-thiophene-3-carboxylic acid], half-maximal inhibition (IC50) required 0.17 µM.

For `O=C(Nc1scc(C2CC2)c1C(=O)O)c1ccccc1` [Compound #87, 2-Benzamido-4-cyclopropyl-thiophene-3-carboxylic acid], the IC50 was 0.81 µM.

In turn, `O=C(Nc1scc(C2CCc3ccccc3O2)c1C(=O)O)c1ccccc1` (centres unmarked) [Compound #85, 2-Benzamido-4-chroman-2-yl-thiophene-3-carboxylic acid] yielded an IC50 of 0.506 µM.

In turn, `COC1CN(c2ccc(C(=O)Nc3scc(C4CCCC4)c3C(=O)O)cc2)C1` [Compound #62, 4-Cyclopentyl-2-[[4-(3-methoxyazetidin-1-yl)benzoyl]amino]thiophene-3-carboxylic acid] returned an IC50 of 0.052 µM.

Regarding `CC(C)(C)c1csc(NC(=O)c2cccc(NCC3CCOCC3)c2)c1C(=O)O` [Compound #110, 4-tert-Butyl-2-[[3-(tetrahydropyran-4-ylmethylamino)benzoyl]amino]thiophene-3-carboxylic acid], the IC50 was found to be 0.82 µM. This IC50 is about 16-fold higher than that of the compound before.

For `CC(C)(C)c1csc(NC(=O)c2ccc(NC3CCOCC3)cc2)c1C(=O)O` [Compound #105, 4-tert-Butyl-2-[[4-(tetrahydropyran-4-ylamino)benzoyl]amino]thiophene-3-carboxylic acid], the IC50 was 0.68 µM. This IC50 and that of the compound before are within 1.5-fold of each other.

For `O=C(Nc1scc(C2CCCC2)c1C(=O)O)c1ccc(N2CCOCC2)cc1` [Compound #59, 4-Cyclopentyl-2-[(4-morpholinobenzoyl)amino]thiophene-3-carboxylic acid], the IC50 was determined as 0.075 µM.

With `CCOC1CN(c2ccc(C(=O)Nc3scc(C(C)(C)C)c3C(=O)O)cc2)C1` [Compound #104, 4-tert-Butyl-2-[[4-(3-ethoxyazetidin-1-yl)benzoyl]amino]thiophene-3-carboxylic acid], inhibition was half-maximal at 0.24 µM (IC50).

As for `Cc1sc(NC(=O)c2ccc(OC(F)F)cc2)c(C(=O)O)c1-c1ccc(Cl)cc1` [Compound #5, 4-(4-Chlorophenyl)-2-[[4-(difluoromethoxy)benzoyl]amino]-5-methyl-thiophene-3-carboxylic acid], the IC50 worked out at 0.26 µM.

In the case of `O=C(Nc1scc(-c2cccc(Cl)c2)c1C(=O)O)c1ccccc1` [Compound #36, 2-Benzamido-4-(3-chlorophenyl)thiophene-3-carboxylic acid], the midpoint of inhibition, the IC50, lay at 1.67 µM.

On to `O=C(Nc1scc(C2CC(c3ccccc3)C2)c1C(=O)O)c1ccccc1` (centres unmarked) [Compound #63, 2-Benzamido-4-(3-phenylcyclobutyl)thiophene-3-carboxylic acid], for which 0.15 µM corresponded to half-maximal inhibition (IC50).

In the case of `COC1CN(c2ccc(C(=O)Nc3scc(C4CC4)c3C(=O)O)cc2)C1` [Compound #88, 4-Cyclopropyl-2-[[4-(3-methoxyazetidin-1-yl)benzoyl]amino]thiophene-3-carboxylic acid], inhibition was half-maximal at 0.5 µM (IC50).

The compound `CC(C)Cc1csc(NC(=O)c2ccc(NCC3CCOCC3)cc2)c1C(=O)O` [Compound #113, 4-Isobutyl-2-[[4-(tetrahydropyran-4-ylmethylamino)benzoyl]amino]thiophene-3-carboxylic acid] had an IC50 of 0.12 µM.

Take `O=C(Nc1scc(C2CCCCC2)c1C(=O)O)c1ccc(N2CCOCC2)cc1` [Compound #29, 4-Cyclohexyl-2-[(4-morpholinobenzoyl)amino]thiophene-3-carboxylic acid]: 1.27 µM corresponded to half-maximal inhibition (IC50).

In the case of `COC1CN(c2ccc(C(=O)Nc3scc(CC(C)C)c3C(=O)O)cc2)C1` [Compound #109, 4-iso-Butyl-2-[[4-(3-methoxyazetidin-1-yl)benzoyl]amino]thiophene-3-carboxylic acid diethylamine salt], the IC50 came to 0.2 µM.

The compound `CC(C)(C)c1csc(NC(=O)c2ccc(NCC3CCOCC3)cc2)c1C(=O)O` [Compound #91, 4-Tert-butyl-2-[[4-(tetrahydropyran-4-ylmethylamino)benzoyl]amino]thiophene-3-carboxylic acid] gave an IC50 of 0.12 µM. Against the preceding compound, the IC50 is about 1.7-fold lower.

Compound `COC1CN(c2ccc(C(=O)Nc3sc(C(C)C)c(C)c3C(=O)O)cc2)C1` [Compound #114, 5-Isopropyl-2-[[4-(3-methoxyazetidin-1-yl)benzoyl]amino]-4-methyl-thiophene-3-carboxylic acid diethylamine salt] registered an IC50 of 0.51 µM.

Consider `O=C(Nc1sc(Cl)c(C2CCCCC2)c1C(=O)O)c1ccc(OC(F)F)cc1` [Compound #13, 5-Chloro-4-cyclohexyl-2-[[4-(difluoromethoxy)benzoyl]amino]thiophene-3-carboxylic acid], for which the IC50 is 0.37 µM.

`O=C(Nc1scc(C2CCCC2)c1C(=O)O)c1cccc(N2CCOCC2)c1` [Compound #71, 4-Cyclopentyl-2-[(3-morpholinobenzoyl)amino]thiophene-3-carboxylic acid] gave an IC50 of 0.13 µM.
